Assay results taken from patent publication US8471005B2 (Cephalon, Inc., priority 2008, dated 2013).
Where two headings read alike, the source gives them in different places.

Tests used:
[1] = biological target: T1, ALK (Homo sapiens, UniProt Q9UM73); experiment: ALK Kinase Assay (ELISA/TRF, PLC-γ substrate); format: biochemical; conditions: read-out: ALK Potency
T1 construct: host or cells: baculovirus expression system
How it was run: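 Wells were coated with 10 μg/mL phospholipase C-γ substrate in TBS, and the reaction was started by adding 30 ng/ml ALK enzyme and run at 37° C for 15 minutes. Phosphorylated product was detected with Eu-N1-labeled PT66 antibody, and IC50 values came from sigmoidal variable-slope fits of percent inhibition against log concentration.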

[2] = biological target: T2, JAK2 (Homo sapiens, UniProt O60674); experiment: Recombinant Human JAK2 Kinase Assay (TRF); format: biochemical; conditions: read-out: JAK2 Potency
T2 construct: host or cells: baculovirus expression system
T2 sequence (O60674 whole entry): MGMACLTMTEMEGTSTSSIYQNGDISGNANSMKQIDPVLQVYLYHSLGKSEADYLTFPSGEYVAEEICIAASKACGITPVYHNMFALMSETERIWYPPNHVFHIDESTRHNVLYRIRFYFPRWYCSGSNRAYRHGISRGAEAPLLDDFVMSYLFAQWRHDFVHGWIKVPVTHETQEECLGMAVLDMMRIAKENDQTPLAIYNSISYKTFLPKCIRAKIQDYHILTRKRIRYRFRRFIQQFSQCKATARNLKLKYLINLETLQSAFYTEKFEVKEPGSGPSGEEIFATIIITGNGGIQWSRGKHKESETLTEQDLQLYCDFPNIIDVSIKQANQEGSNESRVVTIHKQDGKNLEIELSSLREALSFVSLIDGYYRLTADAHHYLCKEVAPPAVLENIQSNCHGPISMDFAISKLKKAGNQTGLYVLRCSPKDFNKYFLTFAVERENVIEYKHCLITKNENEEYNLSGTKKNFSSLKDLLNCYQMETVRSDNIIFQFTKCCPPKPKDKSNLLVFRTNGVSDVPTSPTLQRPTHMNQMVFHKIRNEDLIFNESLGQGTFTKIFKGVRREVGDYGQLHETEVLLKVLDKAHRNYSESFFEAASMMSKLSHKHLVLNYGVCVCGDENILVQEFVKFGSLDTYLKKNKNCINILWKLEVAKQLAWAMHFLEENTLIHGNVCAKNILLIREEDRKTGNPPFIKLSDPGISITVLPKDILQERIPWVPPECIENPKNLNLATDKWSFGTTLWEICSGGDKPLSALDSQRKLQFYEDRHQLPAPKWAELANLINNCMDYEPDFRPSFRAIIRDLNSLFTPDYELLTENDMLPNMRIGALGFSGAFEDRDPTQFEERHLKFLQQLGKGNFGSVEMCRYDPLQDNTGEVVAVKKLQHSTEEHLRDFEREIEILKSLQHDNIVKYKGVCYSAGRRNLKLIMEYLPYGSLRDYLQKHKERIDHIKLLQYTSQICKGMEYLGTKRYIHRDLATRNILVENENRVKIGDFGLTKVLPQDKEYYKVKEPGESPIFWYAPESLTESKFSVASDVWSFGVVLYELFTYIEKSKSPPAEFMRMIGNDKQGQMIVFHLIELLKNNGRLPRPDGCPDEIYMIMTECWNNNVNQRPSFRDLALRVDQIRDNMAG
How it was run: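 TRF read-out: Eu-N1 PY100 anti-phosphotyrosine antibody detects product. Enzyme is baculovirus-expressed JAK2 at 15 ng/ml; substrate is a biotinyl 15-mer peptide bound to Neutravidin-coated wells. Buffer 20 mM HEPES pH 7.2, 0.2 μM ATP, 1 mM MnCl2, 0.1% BSA, 2.5% DMSO final; 20 min, RT.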

[3] = ALK kinase inhibition, 1 μM ATP
[4] = JAK2 kinase inhibition, 0.2 μM ATP

T1 sequence (Q9UM73 19-1620): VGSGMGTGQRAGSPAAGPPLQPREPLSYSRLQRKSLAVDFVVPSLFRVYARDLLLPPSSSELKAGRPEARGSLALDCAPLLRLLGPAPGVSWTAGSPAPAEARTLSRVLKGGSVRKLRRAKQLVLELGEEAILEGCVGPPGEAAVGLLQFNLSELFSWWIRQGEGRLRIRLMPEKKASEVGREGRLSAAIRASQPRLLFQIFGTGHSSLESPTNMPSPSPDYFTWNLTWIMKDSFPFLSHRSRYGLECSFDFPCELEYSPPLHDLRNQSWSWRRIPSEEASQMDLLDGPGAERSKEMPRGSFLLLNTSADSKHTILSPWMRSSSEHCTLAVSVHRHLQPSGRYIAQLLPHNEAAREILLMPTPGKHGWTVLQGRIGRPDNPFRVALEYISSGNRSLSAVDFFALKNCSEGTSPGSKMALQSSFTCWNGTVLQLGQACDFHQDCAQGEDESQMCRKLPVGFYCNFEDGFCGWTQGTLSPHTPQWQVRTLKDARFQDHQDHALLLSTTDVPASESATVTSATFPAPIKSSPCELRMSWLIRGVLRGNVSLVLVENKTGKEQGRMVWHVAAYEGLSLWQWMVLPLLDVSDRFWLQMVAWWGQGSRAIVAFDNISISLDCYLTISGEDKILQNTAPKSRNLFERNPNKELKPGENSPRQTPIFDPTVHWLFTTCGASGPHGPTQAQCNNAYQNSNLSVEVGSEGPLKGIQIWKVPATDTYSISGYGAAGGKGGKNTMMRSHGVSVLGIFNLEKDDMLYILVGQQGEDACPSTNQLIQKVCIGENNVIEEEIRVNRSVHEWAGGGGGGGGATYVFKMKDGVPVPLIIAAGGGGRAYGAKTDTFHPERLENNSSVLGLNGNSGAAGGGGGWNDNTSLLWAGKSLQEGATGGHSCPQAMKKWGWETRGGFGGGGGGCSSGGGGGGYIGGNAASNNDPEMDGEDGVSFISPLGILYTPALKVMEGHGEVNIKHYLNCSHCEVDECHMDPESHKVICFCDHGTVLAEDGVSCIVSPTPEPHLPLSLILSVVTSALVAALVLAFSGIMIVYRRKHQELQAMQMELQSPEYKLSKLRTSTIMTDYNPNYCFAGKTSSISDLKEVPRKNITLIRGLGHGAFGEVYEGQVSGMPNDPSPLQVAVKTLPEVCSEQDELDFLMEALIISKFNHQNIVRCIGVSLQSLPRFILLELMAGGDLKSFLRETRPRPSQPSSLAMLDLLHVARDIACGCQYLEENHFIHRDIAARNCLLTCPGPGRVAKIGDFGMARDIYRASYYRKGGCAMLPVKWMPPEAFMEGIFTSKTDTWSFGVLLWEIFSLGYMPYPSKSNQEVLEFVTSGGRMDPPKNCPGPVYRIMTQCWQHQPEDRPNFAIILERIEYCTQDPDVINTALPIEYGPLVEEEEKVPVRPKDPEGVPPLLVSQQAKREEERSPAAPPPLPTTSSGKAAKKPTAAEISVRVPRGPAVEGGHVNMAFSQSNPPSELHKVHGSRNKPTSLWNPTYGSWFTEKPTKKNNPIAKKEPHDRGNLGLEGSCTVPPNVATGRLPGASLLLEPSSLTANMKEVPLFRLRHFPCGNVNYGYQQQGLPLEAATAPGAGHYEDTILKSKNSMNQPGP

Compound	IC50 [1, 3]	IC50 [2, 4]	IC50 ([1]; ALK Kinase Inhibition)	IC50 ([2]; JAK2 Kinase Inhibition)
CN(C)C1CCC(c2ccc(Nc3ncc4ccc(-c5cccc(S(=O)(=O)NC(C)(C)C)c5)n4n3)cc2)CC1 (centres unmarked) [Example 567, N-tert-Butyl-3-{2-[4-(4-dimethylamino-cyclohexyl)-phenylamino]-pyrrolo[2,1-f][1,2,4]triazin-7-yl}-benzenesulfonamide]	100 to 1000 nM	< 100 nM		
OCC1CCN(c2ccc(Nc3ncc4ccc(-c5cccc(Cl)c5)n4n3)cc2)CC1 [Example 1133, (1-{4-[7-(3-Chloro-phenyl)-pyrrolo[2,1-f][1,2,4]triazin-2-ylamino]-phenyl}-piperidin-4-yl)-methanol]	100 to 1000 nM	< 100 nM		
CN1CCC(c2ccc(Nc3ncc4ccc(-c5cccc(S(=O)(=O)N(C)C)c5)n4n3)cc2)CC1 [Example 902, N,N-Dimethyl-3-{2-[4-(1-methyl-piperidin-4-yl)phenylamino]-pyrrolo[2,1-f][1,2,4]triazin-7-yl}-benzenesulfonamide]	100 to 1000 nM	< 100 nM		
COc1ccccc1-c1ccc2cnc(Nc3ccc(Cl)c(OCC4CCCN4C)c3)nn12 (centres unmarked) [Example 1011, [4-Chloro-3-(1-methyl-pyrrolidin-2-ylmethoxy)-phenyl]-[7-(2-methoxy-phenyl)-pyrrolo[2,1-f][1,2,4]triazin-2-yl]-amine]	100 to 1000 nM	< 100 nM		
COc1cc(N2CCC(N3CCC(F)(F)CC3)CC2)ccc1Nc1ncc2ccc(-c3ccccc3OC)n2n1 [Example 1475, [4-(4,4-Difluoro-[1,4′]bipiperidinyl-1′-yl)-2-methoxy-phenyl]-[7-(2-methoxy-phenyl)-pyrrolo[2,1-f][1,2,4]triazin-2-yl]-amine]			< 100 nM	100 to 1000 nM
COc1ccccc1-c1ccc2cnc(Nc3ccc(C(C)C)c(NC(C)=O)c3)nn12 [Example 301, N-{2-Isopropyl-5-[7-(2-methoxy-phenyl)-pyrrolo[2,1-f][1,2,4]triazin-2-ylamino]-phenyl}-acetamide]			100 to 1000 nM	< 100 nM
COc1ccccc1-c1ccc2cnc(Nc3ccc(C4=CCN(CC(N)=O)CC4)c(C(F)(F)F)c3)nn12 [Example 952, 2-(4-{4-[7-(2-Methoxy-phenyl)-pyrrolo[2,1-f][1,2,4]triazin-2-ylamino]-2-trifluoromethyl-phenyl}-3,6-dihydro-2H-pyridin-1-yl)-acetamide]	100 to 1000 nM	< 100 nM		
CN1CCN(c2ccc(Nc3ncc4ccc(-c5ccccc5CNCCS(C)(=O)=O)n4n3)cc2)CC1 [Example 1199, (7-{2-[(2-M ethanesulfonyl-ethylamino)-methyl]-phenyl}-pyrrolo[2,1-f][1,2,4]triazin-2-yl)-[4-(4-methyl-piperazin-1-yl)-phenyl]-amine]	1000 to 10000 nM	< 100 nM		
COc1ccc(-c2ccc3cnc(Nc4cnn(CCN5CCOCC5)c4)nn23)cn1 [Example 1192, [7-(6-Methoxy-pyridin-3-yl)-pyrrolo[2,1-f][1,2,4]triazin-2-yl]-[1-(2-morpholin-4-yl-ethyl)-1H-pyrazol-4-yl]-amine]	1000 to 10000 nM	< 100 nM		
COc1ccccc1-c1cc(C)c2cnc(Nc3ccc(N4CCN(C)CC4)cc3)nn12 [Example 105, [7-(2-Methoxy-phenyl)-5-methyl-pyrrolo[2,1-f][1,2,4]triazin-2-yl]-[4-(4-methyl-piperazin-1-yl)-phenyl]-amine]			< 100 nM	< 100 nM
CN1CCN(c2ccc(Nc3ncc4c(-c5cccc(F)c5)ccn4n3)cc2)CC1 [Example 730, [5-(3-Fluoro-phenyl)-pyrrolo[2,1-f][1,2,4]triazin-2-yl]-[4-(4-methyl-piperazin-1-yl)-phenyl]-amine]	> 10000 nM	1000 to 10000 nM		
Cc1cc(Nc2ncc3ccc(-c4cccc(S(C)(=O)=O)c4)n3n2)ccc1C1CCN(C)CC1 [Example 946, [7-(3-Methanesulfonyl-phenyl)-pyrrolo[2,1-f][1,2,4]triazin-2-yl]-[3-methyl-4-(1-methyl-piperidin-4-yl)-phenyl]-amine]	< 100 nM	< 100 nM		
CN1CCN(c2ccc(Nc3ncc4ccc(-c5cccc(S(=O)(=O)NCCO)c5)n4n3)cc2)CC1 [Example 369, N-(2-Hydroxy-ethyl)-3-{2-[4-(4-methyl-piperazin-1-yl)-phenylamino]-pyrrolo[2,1-f][1,2,4]triazin-7-yl}-benzenesulfonamide]			100 to 1000 nM	< 100 nM
Cn1ncc2cc(Nc3ncc4ccc(-c5cccc(S(=O)(=O)CC6CC6)c5)n4n3)ccc21 [Example 1322, [7-(3-Cyclopropylmethanesulfonyl-phenyl)-pyrrolo[2,1-f][1,2,4]triazin-2-yl]-(1-methyl-1H-indazol-5-yl)-amine]	1000 to 10000 nM	< 100 nM		
COc1ccc(-c2ccc3cnc(Nc4ccc(N5CCN(CCO)CC5)cc4)nn23)cn1 [Example 1104, 2-(4-{4-[7-(6-Methoxy-pyridin-3-yl)-pyrrolo[2,1-f][1,2,4]triazin-2-ylamino]-phenyl}-piperazin-1-yl)-ethanol]	100 to 1000 nM	< 100 nM		
COc1cc(N2CCCC(N3CCN(C(C)=O)CC3)C2)ccc1Nc1ncc2ccc(-c3ccccc3OC)n2n1 (centres unmarked) [Example 232, 1-[4-(1-{3-Methoxy-4-[7-(2-methoxy-phenyl)-pyrrolo[2,1-f][1,2,4]triazin-2-ylamino]-phenyl}-piperidin-3-yl)-piperazin-1-yl]-ethanone]			< 100 nM	< 100 nM
COc1cc(N2CCC(N3CCOCC3)CC2)ccc1Nc1ncc2ccc(-c3ccccc3F)n2n1 [Example 1473, [7-(2-Fluoro-phenyl)-pyrrolo[2,1-f][1,2,4]triazin-2-yl]-[2-methoxy-4-(4-morpholin-4-yl-piperidin-1-yl)-phenyl]-amine]			< 100 nM	< 100 nM
CN(C)S(=O)(=O)c1ccc(Nc2ncc3ccc(-c4cccc(S(=O)(=O)NC(C)(C)C)c4)n3n2)cc1 [Example 593, 4-({7-[3-(tert-butylsulfamoyl)phenyl]pyrrolo[2,1-f][1,2,4]triazin-2-yl}amino)-N,N-dimethylbenzenesulfonamide]	> 10000 nM	< 100 nM		
CCN1CCOC(c2ccc(Nc3ncc4ccc(-c5ccccc5OC)n4n3)cc2)C1 (centres unmarked) [Example 252, [4-(4-Ethyl-morpholin-2-yl)-phenyl]-[7-(2-methoxy-phenyl)-pyrrolo[2,1-f][1,2,4]triazin-2-yl]-amine]			< 100 nM	< 100 nM
CCS(=O)(=O)c1cccc(-c2ccc3cnc(Nc4ccc5nc[nH]c5c4)nn23)c1 [Example 1311, (3H-Benzimidazol-5-yl)-[7-(3-ethanesulfonyl-phenyl)-pyrrolo[2,1-f][1,2,4]triazin-2-yl]-amine]	1000 to 10000 nM	< 100 nM		
COc1cc(Nc2ncc3ccc(-c4ccccc4N(C)S(C)(=O)=O)n3n2)ccc1C1CCN(C)CC1 [Example 913, N-(2-{2-[3-Methoxy-4-(1-methyl-piperidin-4-yl)-phenylamino]-pyrrolo[2,1-f][1,2,4]triazin-7-yl}-phenyl)-N-methyl-methanesulfonamide]	< 100 nM	< 100 nM		
COc1cc(C2CCN(CCO)CC2)ccc1Nc1ncc2ccc(-c3ccccc3N(C)S(C)(=O)=O)n2n1 [Example 793, N-[2-(2-{4-[1-(2-Hydroxy-ethyl)-piperidin-4-yl]-2-methoxy-henylamino}-pyrrolo[2,1-f][1,2,4]triazin-7-yl)-phenyl]-N-methyl-methanesulfonamide]	< 100 nM	100 to 1000 nM		
